# How the values were obtained:
# [1] = target: T1, BRAF class III mutation G466V (Homo sapiens, UniProt P15056, G466V); assay: Western blot of H1666 cells endogenously expressing G466V; assay type: cell-based; conditions: 24 hours
# T1 construct: cells endogenously expressing the Class III mutation G466V; host or cells: H1666
# [2] = Body weight change in the A375 xenograft study; assay type: in vivo, BALB/c nude mice; conditions: all doses, PO, A375 tumor-bearing mice
# Description: The efficacy study was conducted in female BALB/c nude mice bearing A375 tumors. Female BALB/c nude mice were inoculated subcutaneously in the right flank with A375 tumor cells (5×10^6) in 0.2 mL of PBS supplemented with Matrigel (at a 1:1 ratio) for tumor development. Tumor volume was measured twice weekly in two dimensions using calipers, and volume (mm^3) was calculated using the formula: V=0.5 a×b^2 where a and b are the long and short diameters of the tumor in mm, respectively. Once the tumors reached an average tumor volume of 246 mm^3 (16 days after implantation), the animals were divided randomly into groups of 6, stratified to result in about equal average tumor sizes in each treatment group and treatment began on Day 0.
# All agents were administered to mice bearing A375 tumors orally (PO), daily (QD; encorafenib), twice a day (BID) or three times a day (TID) for Compound 157, for 21 or 35 days. encorafenib was dosed at 35 mg/kg and Compound 157 at 0.1, 0.3, 1, 3 or 10 mg/kg twice a day or 2 mg/kg three times a day. Compound 157 was formulated in 20% PEG400+80% (25% SBECD). Body weight and MTV were measured on a 2× weekly schedule and reported as Mean±SEM.
# [3] = target: T2, p61 splice variant (Homo sapiens, UniProt P15056+Q96SW2, DEL169-380/V600E); assay: Western blot of engineered HEK-293T cells expressing the p61 splice variant; assay type: cell-based; conditions: lentivirus expression
# T2 construct: host or cells: HEK-293T, lentiviral expression
# [4] = system: phospho-ERK (T202/Y204); assay: HTRF phospho-ERK (T202/Y204) assay in A375-NRAS^Q61K cells; assay type: cell-based; conditions: 24 hrs, mean of at least n = 3, read-out: pERK IC50
# Description: A375-NRAS^Q61K cells (harboring BRAF homozygous V600E mutation and NRAS homozygous Q61K mutation) were purchased from ATCC. DMEM Medium without phenol red and supplemented with L-glutamine was purchased from Corning (Corning, NY, USA). Advanced phospho-ERK (Thr202/Tyr204) HTRF assay kits were purchased from Cisbio (Bedford, MA, USA). Cell culture flasks and 384-well microplates were acquired from VWR (Radnor, PA, USA) or Corning (Corning, NY, USA).
# Degradation of activated phospho-ERK (T202/Y204) protein was determined based on quantification of FRET signal using the Advanced phospho-ERK (T202/Y204) HTRF assay kit. Test compounds were added to the 384-well plate from a top concentration of 10 μM with 11 points, half log titration in duplicates. A375-NRAS^Q61K cells were added into 384-well plates at a cell density of 2000 cells per well. The plates were kept at 37° C. with 5% CO2 for 24 hours. Cells treated in the absence of the test compound were the negative control. Positive control was set by wells containing all reagents but no cells. FRET signal was acquired on EnVision™ Multilabel Reader (PerkinElmer, Santa Clara, CA, USA).
# T1 sequence (P15056 2-766 G466V): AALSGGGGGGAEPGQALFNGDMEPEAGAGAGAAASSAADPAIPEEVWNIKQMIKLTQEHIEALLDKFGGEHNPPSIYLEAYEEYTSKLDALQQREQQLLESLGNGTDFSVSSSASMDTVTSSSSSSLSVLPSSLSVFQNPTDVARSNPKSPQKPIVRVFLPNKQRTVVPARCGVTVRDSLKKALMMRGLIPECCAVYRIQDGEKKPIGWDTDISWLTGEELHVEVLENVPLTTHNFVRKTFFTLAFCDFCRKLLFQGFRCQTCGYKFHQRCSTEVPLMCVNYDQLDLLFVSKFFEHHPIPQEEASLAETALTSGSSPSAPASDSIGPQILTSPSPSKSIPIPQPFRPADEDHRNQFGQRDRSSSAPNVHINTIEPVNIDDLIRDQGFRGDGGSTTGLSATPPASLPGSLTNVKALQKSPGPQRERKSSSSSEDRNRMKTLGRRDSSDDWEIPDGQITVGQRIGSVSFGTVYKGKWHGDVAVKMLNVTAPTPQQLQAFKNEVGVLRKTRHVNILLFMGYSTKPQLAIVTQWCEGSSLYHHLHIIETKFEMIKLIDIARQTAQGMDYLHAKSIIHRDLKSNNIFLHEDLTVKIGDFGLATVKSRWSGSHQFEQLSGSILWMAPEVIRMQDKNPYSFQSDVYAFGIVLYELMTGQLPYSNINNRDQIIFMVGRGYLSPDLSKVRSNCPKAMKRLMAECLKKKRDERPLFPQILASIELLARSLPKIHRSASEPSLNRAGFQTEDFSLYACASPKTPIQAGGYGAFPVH
# T2 sequence (P15056 with tags, fused parts or gaps DEL169-380/V600E): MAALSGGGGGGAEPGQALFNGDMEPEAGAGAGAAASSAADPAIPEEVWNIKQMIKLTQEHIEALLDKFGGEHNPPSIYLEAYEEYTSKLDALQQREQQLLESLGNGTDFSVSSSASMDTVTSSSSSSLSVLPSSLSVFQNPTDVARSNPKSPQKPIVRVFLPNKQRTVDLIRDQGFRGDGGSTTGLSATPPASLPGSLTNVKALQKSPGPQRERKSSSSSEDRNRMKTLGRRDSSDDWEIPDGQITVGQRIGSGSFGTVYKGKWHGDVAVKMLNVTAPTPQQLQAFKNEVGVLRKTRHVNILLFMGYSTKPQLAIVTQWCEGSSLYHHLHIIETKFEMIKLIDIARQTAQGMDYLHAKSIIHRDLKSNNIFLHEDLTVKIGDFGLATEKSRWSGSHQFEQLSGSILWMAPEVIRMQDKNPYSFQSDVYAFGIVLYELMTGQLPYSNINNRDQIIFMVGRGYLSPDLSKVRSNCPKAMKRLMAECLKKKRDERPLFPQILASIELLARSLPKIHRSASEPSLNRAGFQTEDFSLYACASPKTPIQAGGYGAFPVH
# T2 sequence (Q96SW2 whole entry, stated change not applied, canonical isoform): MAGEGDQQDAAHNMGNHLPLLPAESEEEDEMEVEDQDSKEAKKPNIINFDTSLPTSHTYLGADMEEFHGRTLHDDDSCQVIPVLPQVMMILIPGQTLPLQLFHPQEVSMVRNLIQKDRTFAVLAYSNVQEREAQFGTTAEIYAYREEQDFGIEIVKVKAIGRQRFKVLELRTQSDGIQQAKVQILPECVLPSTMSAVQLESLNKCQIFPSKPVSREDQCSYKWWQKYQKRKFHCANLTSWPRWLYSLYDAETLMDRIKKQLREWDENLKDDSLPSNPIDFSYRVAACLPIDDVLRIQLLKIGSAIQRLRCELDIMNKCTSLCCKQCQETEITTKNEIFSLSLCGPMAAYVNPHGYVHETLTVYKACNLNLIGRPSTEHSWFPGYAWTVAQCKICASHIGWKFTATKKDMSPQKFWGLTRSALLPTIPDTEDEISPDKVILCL
# T2 sequence (Q16531 whole entry partner, canonical isoform): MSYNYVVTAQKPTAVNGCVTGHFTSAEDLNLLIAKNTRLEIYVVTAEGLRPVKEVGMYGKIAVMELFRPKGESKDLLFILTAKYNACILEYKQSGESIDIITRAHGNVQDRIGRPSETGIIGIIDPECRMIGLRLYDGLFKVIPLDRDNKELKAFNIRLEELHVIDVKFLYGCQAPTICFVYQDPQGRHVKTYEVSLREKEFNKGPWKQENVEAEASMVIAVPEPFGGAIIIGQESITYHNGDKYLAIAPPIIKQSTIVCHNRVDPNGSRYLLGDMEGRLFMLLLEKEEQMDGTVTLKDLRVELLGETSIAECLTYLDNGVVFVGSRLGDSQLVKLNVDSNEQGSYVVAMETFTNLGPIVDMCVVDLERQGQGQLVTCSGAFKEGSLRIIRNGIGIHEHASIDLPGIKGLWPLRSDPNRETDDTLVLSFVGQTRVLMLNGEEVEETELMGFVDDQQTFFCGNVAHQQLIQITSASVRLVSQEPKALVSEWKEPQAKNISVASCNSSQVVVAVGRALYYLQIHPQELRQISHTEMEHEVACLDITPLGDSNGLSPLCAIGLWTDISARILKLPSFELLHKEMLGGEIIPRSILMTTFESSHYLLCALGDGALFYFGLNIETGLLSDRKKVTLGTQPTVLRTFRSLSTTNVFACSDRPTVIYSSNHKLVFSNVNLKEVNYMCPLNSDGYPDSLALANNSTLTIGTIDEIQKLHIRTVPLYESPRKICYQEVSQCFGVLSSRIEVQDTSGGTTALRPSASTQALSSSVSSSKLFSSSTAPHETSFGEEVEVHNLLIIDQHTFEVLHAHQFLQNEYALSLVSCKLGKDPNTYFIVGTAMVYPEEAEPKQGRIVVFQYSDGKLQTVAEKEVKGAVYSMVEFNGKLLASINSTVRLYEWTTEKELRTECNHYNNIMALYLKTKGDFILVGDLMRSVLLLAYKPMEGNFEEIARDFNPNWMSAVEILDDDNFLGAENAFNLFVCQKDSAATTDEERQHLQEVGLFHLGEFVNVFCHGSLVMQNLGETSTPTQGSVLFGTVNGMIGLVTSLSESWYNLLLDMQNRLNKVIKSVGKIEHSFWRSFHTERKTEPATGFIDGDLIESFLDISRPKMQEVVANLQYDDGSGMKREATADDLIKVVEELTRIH
compound,measurement,setting,value
"CCN(C)S(=O)(=O)Nc1ccc(F)c(Oc2ccc3ncn([C@H]4COC5(CCN(C(=O)CC6(O)CCN(c7cc8c(cc7F)c(N7CCC(=O)NC7=O)nn8C)CC6)CC5)C4)c(=O)c3c2)c1C#N [Compound 157, (3R)-3-[6-[2-cyano-3-[[ethyl(methyl)sulfamoyl]amino]-6-fluorophenoxy]-4-oxoquinazolin-3-yl]-8-[2-[1-[3-(2,4-dioxo-1,3-diazinan-1-yl)-5-fluoro-1-methylindazol-6-yl]-4-hydroxypiperidin-4-yl]acetyl]-1-oxa-8-azaspiro[4.5]decane]",phosphorylated ERK signal,[1],decrease
same,reduction in BRAF signal,[1]; includes any WT BRAF,53%
same,Mean body weight loss throughout the study,[2],≤ 3.5%
same,degradation of p61 splice variant,[3],capable of degrading
same,IC50,[4],7.8 nM

# Source: patent US12486253B2, “Therapeutics for the degradation of mutant BRAF” (C4 THERAPEUTICS, INC., priority 2021, dated 2025)
